Measured values as given in patent publication EP0007205A1, “Optically active phenethanolamines, their formulations, use and preparation” (ELI LILLY AND COMPANY, priority 1978, dated 1980).
Read-outs that look alike come from different tables or passages of the source.

Tests used:
dogs [1] = assay: Inotropic potency in anesthetized dogs and conscious dogs with implanted cardiovascular transducers; assay type: in vivo; conditions: for ED50: read-out: Cardiac Contractile Potency mcg/kg ED50; for Blood Pressure Change mm/hg at ED50 / Heart rate Change beats/min. at ED50: at the contractile ED50
Protocol: The heart rate, arterial pressure, cardiac output, and the derivative of left ventricular pressure (which is the index of cardiac contractility), were measured.

dogs [2] = assay: Physical conditioning of dogs (treadmill exercise, chronic oral dosing); assay type: in vivo
Description: In a typical experiment, a group of ten dogs were implanted with miniature pressure transducers in their left ventricle so that measurements of heart rate, systolic pressure and the derivative of left ventricular pressure (the index of cardiac contractility) could be made. The dogs were trained to walk on a treadmill. Five of the dogs were randomly selected to receive a compound of this invention, for instance R,R-N-[2-(4-hydroxyphenyl)-2-hydroxyethyl]-1-methyl-3-(4-hydroxyphenyl)propylaminium chloride. The test animals received saline filled capsules during the first week of the test. During the second and third weeks, the dogs received the test compound orally at a dose of 10 mcg./kg. twice each day. The dosage was increased to 40 mcg./kg. twice each day for the fourth week, and increased to 60 mcg./kg. twice each day through weeks five to eleven. The other five dogs received saline filled capsules throughout the study. Once each week, the animals' response to exercise on . the treadmill was evaluated. Resting data were obtained by permitting the dogs to lie on the treadmill before turning it on. The treadmill then was run at a speed of 3.5 kilometers/hr., with the dogs walking at this speed with no elevation for 5 min., and then for 5 min. at a 20% incline. During the eleventh week of such test, the dogs were made to walk on a 40% incline, thus providing sufficient stress to increase plasma lactic acid and catecholamines. Blood samples prior to each exercise and within two minutes of completing the exercise were taken from the jugular vein.
After several weeks, the dogs were anesthetized and measurements of ventricular function and skeletal muscle blood flow and enzymes were made.

[3] = Canis lupus familiaris, dogs, dose giving a 50% increase in contractile force (derivative of left ventricular pressure)

Structure (SMILES) | ED50 (dogs [1]; [3]) [µg/kg] | Blood Pressure Change mm/hg at ED50 (dogs [1]; dogs) | Heart rate Change beats/min. at ED50 (dogs [1]; dogs) [beats/min.] | other results
C[C@H](CCc1ccc(O)cc1)NC[C@H](O)c1ccccc1 [R,R-N-(2-phenyl-2-hydroxyethyl)-1-methyl-3-(4-hydroxyphenyl)propylamine] | 6 | -13 mm/hg | 15 | 
C[C@@H](CCc1ccc(O)cc1)NC[C@H](O)c1ccccc1 [R,S-N-[2-phenyl-2-hydroxyethyl)-1-methyl-3-(4-hydroxyphenyl)propylamine, reference compound] | 350 | -20 mm/hg | 18 | 
C[C@@H](CCc1ccc(C(N)=O)cc1)NC[C@H](O)c1ccccc1 [R,S-N-(2-phenyl-2-hydroxyethyl)-1-methyl-3-(4-aminocarbonylphenyl)propylamine, reference compound] |  |  |  | ED (max) (dogs [1]; Canis lupus familiaris, dogs, EDmax: a 50% increase in contractile force could not be achieved, dose giving the maximal increase, read-out: Cardiac Contractile Potency mcg/kg (EDmax)): 1980 µg/kg; Blood Pressure Change mm/hg (EDmax) (dogs [1]; dogs, at EDmax dose): -30 (EDmax) mm/hg; Heart rate Change beats/min. (EDmax) (dogs [1]; dogs, at EDmax dose): 24 (EDmax) beats/min.
C[C@H](CCc1ccc(O)cc1)NC[C@H](O)c1ccc(O)cc1.Cl [R,R-N-[2-(4-Hydroxyphenyl)-2-hydroxyethyl]-1-methyl-3-(4-hydroxyphenyl)propylaminium chloride] |  |  |  | Skeletal Muscle Blood Flow (ml./min./100 g.) (dogs [2]; conditioned dogs, anesthetized after several weeks, p<0.01): 2.5 ml./min./100 g.; Heart Rate (beats/min.) at rest (dogs [2]; conditioned dogs, at rest, p<0.01): 55 beats/min.; Heart Rate (beats/min.) at 20° walk (dogs [2]; conditioned dogs, treadmill walk at 20°, p<0.01): 150 beats/min.; Blood Lactic Acid (mg.%) at rest (dogs [2]; dogs, oral 10 then 40 then 60 mcg./kg. twice each day over eleven weeks, at rest, p<0.01 printed for lactic acid): 5.2 mg.%; Plasma Norepinephrine (picograms/ml.) at rest (dogs [2]; dogs, oral 10 then 40 then 60 mcg./kg. twice each day over eleven weeks, at rest, p<0.05 printed for norepinephrine): 235 picograms/ml.; Blood Lactic Acid (mg.%) during exercise (dogs [2]; dogs, oral 10 then 40 then 60 mcg./kg. twice each day over eleven weeks, during treadmill exercise, p<0.01 printed for lactic acid): 6.3 mg.%; Plasma Norepinephrine (picograms/ml.) during exercise (dogs [2]; dogs, oral 10 then 40 then 60 mcg./kg. twice each day over eleven weeks, during treadmill exercise, p<0.05 printed for norepinephrine): 200 picograms/ml.; Succinic Dehydrogenase Activity (µM/mgP/min.) (dogs [2]; skeletal muscle of conditioned dogs, p<0.01): 3.3 µM/mgP/min.
C[C@H](CCc1ccc(C(N)=O)cc1)NC[C@H](O)c1ccccc1 [R,R-N-(2-Phenyl-2-hydroxyethyl)-l-methyl-3-(4-aminocarbonylphenyl)propylamine] | 7 | +3 mm/hg | 15 | 
C[C@H](CCc1ccc(O)cc1)NC[C@H](O)c1ccc(O)cc1 [R,R-N-[2-(4-hydroxyphenyl)-2-hydroxyethyl]-1-methyl-3-(4-hydroxyphenyl)propylamine] |  | -5 mm/hg | 15 | ED50 (dogs [1]; Canis lupus familiaris): 0.32 µg/kg
C[C@@H](CCc1ccc(O)cc1)NC[C@H](O)c1ccc(O)cc1 [R,S-N-[2-(4-hydroxyphenyl)-2-hydroxyethyl]-1-methyl-3-(4-hydroxyphenyl)propylamine, reference compound] |  | -2 mm/hg | 15 | ED50 (dogs [1]; Canis lupus familiaris): 11 µg/kg
